# Reference: US9695219B2, “Polypeptide having antibacterial activity and angiogenesis-inducing activity and wound-healing drug containing said polypeptide” (priority 2009, dated 2017)
# Tests used:
# Assay type in all cases: cell-based
# Alternaria alternata = conditions: 37° C. for 20 hours; tested twice, first/second value where not matched
# Procedure: (§1) Further, with respect to not only the above-described strains but also various other strains, the “minimum inhibitory concentration (MIC)” was measured as follows. MIC is the lowest concentration of an agent that may inhibit the growth of a bacterium. MIC is used as a parameter for the efficacy of an antibacterial agent, for the strength of bacterial sensitivity, or the like. The bacteria can grow (proliferate) when the concentration is not higher than MIC, and cannot grow when the concentration is higher than MIC. Its measurement is carried out according to a method defined as a standard method by Japanese Society of Chemotherapy or CLINICAL AND LABORATORY […] (CLSI), but, in this Example, its measurement was carried out by a broth microdilution method in accordance with “M100-S17/M7-A7” (Performance Standards for Antimicrobial Susceptibility Testing; Seventeenth Informational Supplement, Vol. 27 No. 1) published by CLSI on January, 2007. That is, sensitivity test of agents was carried out using a microtiter plate or test tubes.
# (§2) The bacteria were cultured in liquid media for 4 to 6 hours, and thereafter absorbances at A600 were measured. Bacterial suspensions were diluted with Mueller-Hinton broth (MHB) according to McFarland #0.5. Each strain was added so as to attain about 10^5 CFU/ml (final concentration). Each peptide was prepared to an optional concentration, and the solutions were serially diluted from the concentration. The polypeptide at each concentration stage was added to a microplate or test tubes, and the bacterial suspension was added thereto. Chloramphenicol, amphotericin B, ciprofloxacin, meropenem (MEPM), ciprofloxacin (CPFX), tobramycin (TOB) and oxacillin (OX) were used as positive controls. The plate was incubated at 37° C. for 20 hours, and the lowest concentration where bacterial growth was inhibited was regarded as the minimum inhibitory concentration.
# Candida krusei = conditions: 37° C. for 20 hours; tested twice, first/second value where not matched
# Procedure: as §1, §2
# Fusarium solani = conditions: 37° C. for 20 hours; tested twice, first/second value where not matched
# Procedure: as §1, §2
# [1] = tested on: Penicillium glabrum (Penicillium frequentans); conditions: 37° C. for 20 hours; tested twice, first/second value where not matched
# Procedure: as §1, §2
# [2] = tested on: Trichophyton mentagrophytes; conditions: 37° C. for 20 hours; tested twice, first/second value where not matched
# Procedure: as §1, §2
# Trichophyton rubrum = conditions: 37° C. for 20 hours; tested twice, first/second value where not matched
# Procedure: as §1, §2
# Bacillus subtilis = test: microbe, parasite or virus in culture; conditions: 37° C. for 20 hours, tested twice, first/second value where not matched
# Procedure: as §1, §2
# Bacteroides fragilis = test: microbe, parasite or virus in culture; conditions: Bacteroides fragilis; 37° C. for 20 hours; tested twice, first/second value where not matched
# Procedure: as §1, §2
# Clostridium ramosum = test: microbe, parasite or virus in culture; conditions: Thomasclavelia ramosa; 37° C. for 20 hours; tested twice, first/second value where not matched
# Procedure: as §1, §2
# Enterococcus faecalis = test: microbe, parasite or virus in culture; conditions: 37° C. for 20 hours, tested twice, first/second value where not matched
# Procedure: as §1, §2
# Fusobacterium nucleatum = test: microbe, parasite or virus in culture; conditions: Fusobacterium nucleatum; 37° C. for 20 hours; tested twice, first/second value where not matched
# Procedure: as §1, §2
# Micrococcus luteus = test: microbe, parasite or virus in culture; conditions: 37° C. for 20 hours, tested twice, first/second value where not matched
# Procedure: as §1, §2
# Salmonella enteritidis = test: microbe, parasite or virus in culture; conditions: Salmonella enterica, 37° C. for 20 hours, tested twice, first/second value where not matched
# Procedure: as §1, §2
# Salmonella typhimurium = test: microbe, parasite or virus in culture; conditions: Salmonella enterica, TYPHIMURIUM; 37° C. for 20 hours; tested twice, first/second value where not matched
# Procedure: as §1, §2
# Streptococcus pyogenes = test: microbe, parasite or virus in culture; conditions: 37° C. for 20 hours, tested twice, first/second value where not matched
# Procedure: as §1, §2
# Acinetobacter baumanni = conditions: 37° C. for 20 hours; tested twice, first/second value where not matched
# Procedure: as §1, §2
"MIC, Alternaria alternata (Alternaria alternata) [µg/mL]","MIC, Candida krusei (Candida krusei) [µg/mL]","MIC, Fusarium solani (Fusarium solani) [µg/mL]","MIC, Penicillium glabrum (Penicillium frequentans) [1] [µg/mL]","MIC, Trichophyton mentagrophytes [2] [µg/mL]","MIC, Trichophyton rubrum (Trichophyton rubrum) [µg/mL]",MIC (Bacillus subtilis) [µg/mL],MIC (Bacteroides fragilis) [µg/mL],MIC (Clostridium ramosum) [µg/mL],MIC (Enterococcus faecalis) [µg/mL],MIC (Fusobacterium nucleatum) [µg/mL],MIC (Micrococcus luteus) [µg/mL],MIC (Salmonella enteritidis) [µg/mL],MIC (Salmonella typhimurium) [µg/mL],MIC (Streptococcus pyogenes) [µg/mL],"MIC, Acinetobacter baumanni (Acinetobacter baumanni)",SMILES
1,2,1,0.125,0.125,0.25,,,,,,,,,,,"C[C@@H]1[C@H](O)[C@@H](C)/C=C/C=C/C=C/C=C/C=C/C=C/C=C/[C@H](O[C@@H]2O[C@H](C)[C@@H](O)[C@H](N)[C@@H]2O)C[C@@H]2O[C@](O)(C[C@@H](O)C[C@@H](O)[C@H](O)CC[C@@H](O)C[C@@H](O)CC(=O)O[C@H]1C)C[C@H](O)[C@H]2C(=O)O [Amphotericin B, amphotericin B]"
,,,,,,4,1,4,4,0.25,1,4,4,2,16/32,O=C(N[C@H](CO)[C@H](O)c1ccc([N+](=O)[O-])cc1)C(Cl)Cl [Chloramphenicol]
